Test results published in patent US7880014B2, “Angiotensin II receptor antagonists” (Merck Sharp & Dohme Corp., priority 2006, dated 2011).

What was measured:
CYP3A4 = molecular target: T1, CYP3A4 (Homo sapiens, UniProt P08684); assay: CYP3A4 Time-Dependent Inhibition Assay (pooled human liver microsomes, testosterone 6β-hydroxylation); format: in vitro ADME; settings: human liver microsomes 1 mg/mL, preincubation 5 to 30 min
T1 construct: Pooled human liver microsomes (1 mg/mL) were preincubated at 37° C; from tissue; host or cells: pooled human liver microsomes
T1 sequence (P08684 whole entry): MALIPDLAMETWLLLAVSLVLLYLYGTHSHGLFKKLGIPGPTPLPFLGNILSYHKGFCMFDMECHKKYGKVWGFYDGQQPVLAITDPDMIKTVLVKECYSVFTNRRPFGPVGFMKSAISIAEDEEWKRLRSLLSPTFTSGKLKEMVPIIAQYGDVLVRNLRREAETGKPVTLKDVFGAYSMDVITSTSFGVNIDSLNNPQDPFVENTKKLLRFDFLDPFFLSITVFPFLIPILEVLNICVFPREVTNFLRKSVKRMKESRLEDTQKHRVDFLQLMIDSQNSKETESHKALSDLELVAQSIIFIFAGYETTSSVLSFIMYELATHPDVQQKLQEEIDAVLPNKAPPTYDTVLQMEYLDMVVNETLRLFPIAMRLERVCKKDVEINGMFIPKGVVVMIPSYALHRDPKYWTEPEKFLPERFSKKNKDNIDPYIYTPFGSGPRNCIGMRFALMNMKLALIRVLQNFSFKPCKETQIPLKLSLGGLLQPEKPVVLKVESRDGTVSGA
Protocol: The incubation mixtures were diluted 10-fold with the same buffer containing 250 μM testosterone and an NADPH-generating system. The incubation was continued for an additional 10 min to monitor the extent of testosterone 6β-hydroxylation. The first order rate constants (kobs) for inactivation at 10 and 50 μM were calculated from the negative slope of the lines by linear regression analysis of the natural logarithm of the remaining activity as a function of time using KaleidaGraph Synergy Software (Reading, Pa.).

rabbit aortic slices = assay: vessel relaxation assay (in vitro, tissue-based, rabbit aortic slices); format: cell-based

| SMILES | Rate Constant (kobs) at 10 μM (CYP3A4) [min⁻¹] | Rate Constant (kobs) at 50 μM (CYP3A4) [min⁻¹] | EC50 (rabbit aortic slices) [µM] |
| --- | --- | --- | --- |
| CCCCc1nc(Cl)c(C(=O)OC(C)OC(=O)OCCCC[C@H](CO[N+](=O)[O-])O[N+](=O)[O-])n1Cc1ccc(-c2ccccc2-c2nnn[nH]2)cc1 (single isomer, unassigned) [Compound 2] | 0.026 | 0.037 | – |
| CCCCc1nc(Cl)c(C(=O)OC(C)OC(=O)OCCCC[C@H](CO[N+](=O)[O-])O[N+](=O)[O-])n1Cc1ccc(-c2ccccc2-c2nnn[nH]2)cc1 (single isomer, unassigned) [Compound 3] | ~0.077 | 0.076 | 1.3 |
